This is an account of results in ChEMBL document CHEMBL1201862, “PubChem BioAssay data set” (2004).

Among the test systems are K562; COLO 205; 786-0; DU-145; HT-29; IGROV-1; SNB-75; TK-10; SK-MEL-5; SNB-19; RXF 393; T47D; MDA-MB-231; Malme-3M; OVCAR-8; HCC 2998; HOP-62; OVCAR-4; SF-268; SK-MEL-28.
What all share (experiment): NCI anticancer screen, dose series, 48 h

SMILES strings stand for the structures. Where a name gives a salt, the structure may show the parent alone.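 Exposure lasted 48 hours, with cells grown in 96-well plates and compounds tested at five concentrations. GI50: concentration for 50% inhibition of growth.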 Calls of active or inactive are those of the source. Rule as the data show it: active = GI50 up to about 1.1 µM and inactive = higher.

Regarding `Cc1cccc2[nH]c3c(c(O)cc4[nH]c5cccc(C)c5c(=O)c43)c(=O)c12`, the GI50 was 4.02 µM (inactive) with K562; 3.84 µM (inactive) in the experiment with COLO 205; 2.99 µM (inactive) with 786-0; 5.98 µM (inactive) in the experiment on DU-145; 3.85 µM (inactive) in the experiment with HT-29; 5.74 µM (inactive) in the experiment with IGROV-1. Further, the GI50 was > 10 µM (inactive) with SNB-75; 5.08 µM (inactive) with TK-10; 9.04 µM (inactive) with SK-MEL-5; > 10 µM (inactive) in the experiment on SNB-19; 7 µM (inactive) with RXF 393; 8.83 µM (inactive) with T47D. In addition, the GI50 was 8.11 µM (inactive) in the experiment on MDA-MB-231; 6.95 µM (inactive) in the experiment with Malme-3M; 6.11 µM (inactive) with OVCAR-8; > 10 µM (inactive) in the experiment with HCC 2998; > 10 µM (inactive) in the experiment with HOP-62; 4.33 µM (inactive) with OVCAR-4. The GI50 in the experiment on SF-268 and in the experiment with SK-MEL-28 was > 10 µM (inactive) each time.
As to `O=c1ccn([C@@H]2C[C@H]2CO)c(=O)[nH]1`, the GI50 in the experiment on K562, in the experiment with COLO 205, with 786-0, with DU-145, with HT-29 and in the experiment on IGROV-1 was > 100 µM (inactive) each time. Besides, the GI50 with SNB-75, in the experiment with TK-10, in the experiment with SK-MEL-5, with SNB-19, in the experiment with RXF 393 and in the experiment on T47D was > 100 µM (inactive) in each case. In addition, the GI50 in the experiment on MDA-MB-231, in the experiment on Malme-3M, in the experiment with OVCAR-8, with HCC 2998, with HOP-62 and in the experiment on OVCAR-4 was > 100 µM (inactive) throughout. Besides, the GI50 in the experiment with SF-268 and with SK-MEL-28 was > 100 µM (inactive) throughout.
On to `O=C1CSC(c2cccs2)N1c1nc2cc3sc(N4C(=O)CSC4c4cccs4)nc3cc2s1` (stereo not given), for which the GI50 in the experiment on K562 is 34.5 µM (inactive); in the experiment on COLO 205, 1.21 µM (inactive); with 786-0, > 50 µM (inactive); with DU-145, > 50 µM (inactive); with HT-29, 11.9 µM (inactive); in the experiment on IGROV-1 it was 32.3 µM (inactive). Also, the GI50 in the experiment on SNB-75 is > 50 µM (inactive); in the experiment on TK-10 it was > 50 µM (inactive); in the experiment with SK-MEL-5, 22.5 µM (inactive); in the experiment on SNB-19, > 50 µM (inactive); in the experiment on RXF 393, > 50 µM (inactive); with T47D, > 50 µM (inactive). For the same molecule, the GI50 in the experiment on MDA-MB-231, with Malme-3M, in the experiment on OVCAR-8, in the experiment on HCC 2998, in the experiment on HOP-62 and in the experiment with OVCAR-4 was > 50 µM (inactive) each time. Besides, the GI50 in the experiment with SF-268 and in the experiment on SK-MEL-28 was > 50 µM (inactive) each time.
Consider `Brc1ccc2c(-c3csc(-c4c[nH]c5ccc(Br)cc45)n3)c[nH]c2c1`, for which the GI50 was 3.53 µM (inactive) with K562; 2.88 µM (inactive) in the experiment on COLO 205; 2.31 µM (inactive) in the experiment on 786-0; 3.86 µM (inactive) with DU-145; 1.76 µM (inactive) in the experiment with HT-29; 2.43 µM (inactive) with IGROV-1. Further, the GI50 was 10.2 µM (inactive) with SNB-75; 3.94 µM (inactive) with TK-10; 3.65 µM (inactive) in the experiment with SK-MEL-5; 4.09 µM (inactive) in the experiment with SNB-19; 3.02 µM (inactive) in the experiment on RXF 393; 2.94 µM (inactive) in the experiment with T47D. Besides, the GI50 in the experiment on MDA-MB-231 was 3.42 µM (inactive); in the experiment on Malme-3M, 5.4 µM (inactive); in the experiment with OVCAR-8, 5.52 µM (inactive); with HCC 2998 it was 2.32 µM (inactive); with HOP-62 it was 12.1 µM (inactive); in the experiment with OVCAR-4, 6.9 µM (inactive). For the same molecule, the GI50 in the experiment on SF-268 was 3.6 µM (inactive); with SK-MEL-28 it was 7.59 µM (inactive).
As for `CC1(C)CC(=O)C2=C(C1)OC1(CC2c2ccc(Cl)cc2)CC(c2ccc(Cl)cc2)C2=C(CC(C)(C)CC2=O)O1` (stereo not given), the GI50 was 8.18 µM (inactive) in the experiment with K562; 16 µM (inactive) with COLO 205; 15.7 µM (inactive) in the experiment with 786-0; 19.6 µM (inactive) with DU-145; 28.2 µM (inactive) with HT-29; 12.5 µM (inactive) with IGROV-1. Besides, the GI50 was 17.5 µM (inactive) in the experiment on SNB-75; 32.4 µM (inactive) in the experiment with TK-10; 14.8 µM (inactive) in the experiment with SK-MEL-5; 18.8 µM (inactive) in the experiment with SNB-19; 26.1 µM (inactive) with RXF 393; > 10 µM (inactive) in the experiment on T47D. The GI50 in the experiment on MDA-MB-231 was 24.4 µM (inactive); in the experiment on Malme-3M, 15.3 µM (inactive); with OVCAR-8, 24.7 µM (inactive); in the experiment with HCC 2998, 16.3 µM (inactive); in the experiment with HOP-62 it was 15.6 µM (inactive); in the experiment on OVCAR-4, 6.78 µM (inactive). Besides, the GI50 was 17.9 µM (inactive) in the experiment on SF-268 and 15.2 µM (inactive) in the experiment with SK-MEL-28.
Consider `NCCSSCCN` [CYSTAMINE HYDROCHLORIDE], for which the GI50 in the experiment with K562, in the experiment on COLO 205, in the experiment with 786-0, in the experiment on DU-145, in the experiment with HT-29 and in the experiment with IGROV-1 was > 100 µM (inactive) in each case. Besides, the GI50 in the experiment with SNB-75, with TK-10, in the experiment on SK-MEL-5, with SNB-19, in the experiment on RXF 393 and in the experiment with T47D was > 100 µM (inactive) each time. The GI50 in the experiment on MDA-MB-231, in the experiment on Malme-3M, in the experiment on OVCAR-8, with HCC 2998, in the experiment with HOP-62 and in the experiment on OVCAR-4 was > 100 µM (inactive) in each case. Besides, the GI50 in the experiment on SF-268 and with SK-MEL-28 was > 100 µM (inactive) throughout.
As for `CC(=O)Nc1ccc2c3c(cc(O)c2c1)N(C(=O)CCCCC(=O)N1CC(CCl)c2c1cc(O)c1cc(NC(C)=O)ccc21)CC3CCl` (stereo not given), the GI50 in the experiment with K562 was 0.284 µM (active); in the experiment on COLO 205, 0.102 µM (active); in the experiment on 786-0, 0.0528 µM (active); with DU-145 it was < 0.01 µM (active); in the experiment with HT-29, 0.301 µM (active); with IGROV-1, 0.352 µM (active). The GI50 is < 0.0395 µM (active) in the experiment with SNB-75; 2.19 µM (inactive) in the experiment with TK-10; 0.129 µM (active) with SK-MEL-5; 0.0436 µM (active) in the experiment with SNB-19; 0.153 µM (active) in the experiment on RXF 393; 0.0129 µM (active) in the experiment on T47D. The GI50 in the experiment with MDA-MB-231 was 0.29 µM (active); in the experiment with Malme-3M, 0.149 µM (active); in the experiment on OVCAR-8, 0.253 µM (active); with HCC 2998, 0.21 µM (active); in the experiment on HOP-62, 0.177 µM (active); in the experiment on OVCAR-4 it was 1.63 µM (inactive). The GI50 in the experiment with SF-268 is < 0.0141 µM (active); with SK-MEL-28, 0.27 µM (active).
With `CCCCCCc1cc2cc(C(=O)Nc3cccc(C(F)(F)F)c3)c(=N)oc2cc1O`, the GI50 is 0.543 µM (active) in the experiment on K562; 6.64 µM (inactive) in the experiment with COLO 205; 1.37 µM (inactive) with 786-0; 1.37 µM (inactive) in the experiment with DU-145; 5.96 µM (inactive) with HT-29; 1.19 µM (inactive) with IGROV-1. For the same molecule, the GI50 was 0.646 µM (active) in the experiment with SNB-75; 4.01 µM (inactive) in the experiment with TK-10; 1.13 µM (inactive) with SK-MEL-5; 2.39 µM (inactive) with SNB-19; 0.49 µM (active) with RXF 393; 0.316 µM (active) in the experiment with T47D. Moreover, the GI50 was 2.31 µM (inactive) with MDA-MB-231; 1.17 µM (inactive) in the experiment with Malme-3M; 1.26 µM (inactive) in the experiment with OVCAR-8; 2.74 µM (inactive) in the experiment with HCC 2998; 1.9 µM (inactive) in the experiment with HOP-62; 2.32 µM (inactive) in the experiment on OVCAR-4. Further, the GI50 in the experiment on SF-268 was 0.944 µM (active); in the experiment with SK-MEL-28 it was 2.57 µM (inactive).
For the molecule `CN(C)CC/C=C1\c2ccccc2Sc2ccc(Cl)cc21`, the GI50 in the experiment on K562 is 5.16 µM (inactive); in the experiment with COLO 205 it was 14.2 µM (inactive); with 786-0 it was 12.2 µM (inactive); with DU-145, 15.4 µM (inactive); in the experiment with HT-29, 4.19 µM (inactive); in the experiment on IGROV-1 it was 11.9 µM (inactive). For the same molecule, the GI50 in the experiment with SNB-75 was 12.3 µM (inactive); with TK-10, 14.5 µM (inactive); with SK-MEL-5, 14 µM (inactive); with SNB-19 it was 15.5 µM (inactive); in the experiment on RXF 393 it was 12.5 µM (inactive); in the experiment with T47D, 16.3 µM (inactive). Further, the GI50 was 13.6 µM (inactive) with MDA-MB-231; 12.8 µM (inactive) in the experiment on Malme-3M; 15.5 µM (inactive) with OVCAR-8; 2.22 µM (inactive) in the experiment on HCC 2998; 14.4 µM (inactive) with HOP-62; 12.6 µM (inactive) in the experiment with OVCAR-4. The GI50 is 14.1 µM (inactive) with SF-268 and 6.21 µM (inactive) in the experiment with SK-MEL-28.
For `CCOP(=O)(OCC)C(C)(C)OC(=O)NC(F)(F)F`, the GI50 with K562, in the experiment on COLO 205, in the experiment with 786-0, in the experiment on DU-145, with HT-29 and in the experiment with IGROV-1 was > 100 µM (inactive) in each case. For the same molecule, the GI50 with SNB-75, in the experiment with TK-10, with SK-MEL-5, in the experiment with SNB-19, in the experiment on RXF 393 and in the experiment on T47D was > 100 µM (inactive) in each case. Further, the GI50 in the experiment with MDA-MB-231, with Malme-3M, with OVCAR-8, in the experiment with HCC 2998, in the experiment with HOP-62 and with OVCAR-4 was > 100 µM (inactive) in each case. Moreover, the GI50 in the experiment with SF-268 and in the experiment on SK-MEL-28 was > 100 µM (inactive) each time.
